Values joined by “and” are separate entries in the source; they are usually repeats but may differ in a detail not shown here. Equal values may be shown once.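 Tested at 5 concentrations; 48 h exposure; 96-well plates; endpoints linearly interpolated, else capped at highest concentration. GI50 = concentration required for 50% inhibition of growth. At the TGI there is no net growth.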
Experiments:
Test in all cases: NCI tumour cell line growth inhibition, 48 h
786-0 renal = test system: 786-0 renal
A498 renal = test system: A498 renal
A549 NSCLC = test system: A549 NSCLC
ACHN renal = test system: ACHN renal
BT-549 breast = test system: BT-549 breast
CAKI-1 renal = test system: CAKI-1 renal
CCRF-CEM leukemia = test system: CCRF-CEM leukemia
COLO 205 colon = test system: COLO 205 colon
DU-145 prostate = test system: DU-145 prostate
EKVX NSCLC = test system: EKVX NSCLC
HCC-2998 colon = test system: HCC-2998 colon
HCT-116 colon = test system: HCT-116 colon
HCT-15 colon = test system: HCT-15 colon
HOP-62 NSCLC = test system: HOP-62 NSCLC
HOP-92 NSCLC = test system: HOP-92 NSCLC
HS 578T breast = test system: HS 578T breast
HT29 colon = test system: HT29 colon
IGROV1 ovarian = test system: IGROV1 ovarian
K-562 leukemia = test system: K-562 leukemia
KM12 colon = test system: KM12 colon
M14 melanoma = test system: M14 melanoma
MALME-3M melanoma = test system: MALME-3M melanoma
MDA-MB-231 breast = test system: MDA-MB-231 breast
MDA-MB-435 = test system: MDA-MB-435
MDA-N = test system: MDA-N
MOLT-4 leukemia = test system: MOLT-4 leukemia
NCI-H226 lung = test system: NCI-H226 lung
NCI-H23 lung = test system: NCI-H23 lung
NCI-H460 lung = test system: NCI-H460 lung
NCI/ADR-RES ovarian = test system: NCI/ADR-RES ovarian
OVCAR-3 ovarian = test system: OVCAR-3 ovarian
OVCAR-4 ovarian = test system: OVCAR-4 ovarian
OVCAR-5 ovarian = test system: OVCAR-5 ovarian
OVCAR-8 ovarian = test system: OVCAR-8 ovarian
PC-3 prostate = test system: PC-3 prostate
RPMI-8226 leukemia = test system: RPMI-8226 leukemia
RXF 393 renal = test system: RXF 393 renal
SF-268 CNS = test system: SF-268 CNS
SF-295 CNS = test system: SF-295 CNS
SK-MEL-2 melanoma = test system: SK-MEL-2 melanoma
SK-MEL-28 melanoma = test system: SK-MEL-28 melanoma
SK-MEL-5 melanoma = test system: SK-MEL-5 melanoma
SK-OV-3 ovarian = test system: SK-OV-3 ovarian
SN12C renal = test system: SN12C renal
SNB-19 CNS = test system: SNB-19 CNS
SR leukemia = test system: SR leukemia
SW-620 colon = test system: SW-620 colon
T-47D breast = test system: T-47D breast
TK-10 renal = test system: TK-10 renal
U251 CNS = test system: U251 CNS
UACC-257 melanoma = test system: UACC-257 melanoma
UACC-62 melanoma = test system: UACC-62 melanoma
UO-31 renal = test system: UO-31 renal
HL-60(TB) leukemia = test system: HL-60(TB) leukemia
LOX IMVI melanoma = test system: LOX IMVI melanoma
MCF7 breast = test system: MCF7 breast
NCI-H522 lung = test system: NCI-H522 lung
SF-539 CNS = test system: SF-539 CNS

COC1/C=C/C(C)C(C(C)C(OC)C(C)CCC(=O)C(C)C(C/C=C/N(C)C=O)OC)OC(=O)/C=C/C=C(\C)CC(OC)CC2=CC(=O)O[C@H](C2)C(C)C(OC)CC(OC)/C=C/C(C)C(OC)C1 (stereo partly specified)
GI50 (786-0 renal): 15.5 nM | TGI (786-0 renal): 35.6 nM | GI50 (A498 renal): 17.6 nM | TGI (A498 renal): 50.8 nM | GI50 (A549 NSCLC): 18.5 nM | TGI (A549 NSCLC): 271 nM and 284 nM | GI50 (ACHN renal): 28.2 nM | GI50 (BT-549 breast): 108 nM | GI50 (CAKI-1 renal): 6.82 nM | TGI (CAKI-1 renal): 30.8 nM and 11.7 nM | GI50 (CCRF-CEM leukemia): 21.8 nM | TGI (CCRF-CEM leukemia): 36.7 nM | GI50 (COLO 205 colon): 18.4 nM | TGI (COLO 205 colon): 131 nM | GI50 (DU-145 prostate): 123 nM | GI50 (EKVX NSCLC): 123 nM | TGI (EKVX NSCLC): 869 nM and 362 nM | GI50 (HCC-2998 colon): 4.6 nM | GI50 (HCT-116 colon): 6.6 nM | TGI (HCT-116 colon): 115 nM and 14.8 nM | GI50 (HCT-15 colon): 14.2 nM | TGI (HCT-15 colon): 270 nM and 32.9 nM | GI50 (HOP-62 NSCLC): 17.8 nM | TGI (HOP-62 NSCLC): 44.9 nM and 16.9 nM | GI50 (HOP-92 NSCLC): 16.1 nM | TGI (HOP-92 NSCLC): 48.9 nM and 31.3 nM | GI50 (HS 578T breast): 29.7 nM | TGI (HS 578T breast): 71 nM and 60.1 nM | GI50 (HT29 colon): 23.6 nM | GI50 (IGROV1 ovarian): 15.9 nM | TGI (IGROV1 ovarian): 53 nM and 34.1 nM | GI50 (K-562 leukemia): 1.05 nM | GI50 (KM12 colon): 6.96 nM | GI50 (M14 melanoma): 21.5 nM | TGI (M14 melanoma): 68.6 nM | GI50 (MALME-3M melanoma): 21.3 nM | TGI (MALME-3M melanoma): 58.2 nM and 31.5 nM | GI50 (MDA-MB-231 breast): 11.4 nM | TGI (MDA-MB-231 breast): 58.4 nM | GI50 (MDA-MB-435): 30.3 nM | TGI (MDA-MB-435): 472 nM and 311 nM | GI50 (MDA-N): 47.2 nM | TGI (MDA-N): 1110 nM | GI50 (MOLT-4 leukemia): 164 nM | TGI (MOLT-4 leukemia): 110 nM | GI50 (NCI-H226 lung): 21.5 nM | TGI (NCI-H226 lung): 129 nM | GI50 (NCI-H23 lung): 91.9 nM | TGI (NCI-H23 lung): 499 nM and 171 nM | GI50 (NCI-H460 lung): 10 nM | TGI (NCI-H460 lung): 118 nM and 97 nM | GI50 (NCI/ADR-RES ovarian): 102 nM | GI50 (OVCAR-3 ovarian): 12.7 nM | TGI (OVCAR-3 ovarian): 30.7 nM | GI50 (OVCAR-4 ovarian): 10.8 nM | GI50 (OVCAR-5 ovarian): 119 nM | TGI (OVCAR-5 ovarian): 714 nM | GI50 (OVCAR-8 ovarian): 22.7 nM | TGI (OVCAR-8 ovarian): 76.8 nM and 196 nM | TGI (PC-3 prostate): 38.7 nM and 41.7 nM | TGI (RPMI-8226 leukemia): 19.4 nM | GI50 (RXF 393 renal): 37.8 nM | TGI (RXF 393 renal): 141 nM and 37.6 nM | GI50 (SF-268 CNS): 40 nM | TGI (SF-268 CNS): 485 nM and 612 nM | GI50 (SF-295 CNS): 27.7 nM | TGI (SF-295 CNS): 159 nM and 16.5 nM | TGI (SK-MEL-2 melanoma): 39.9 nM | GI50 (SK-MEL-28 melanoma): 41.3 nM | TGI (SK-MEL-28 melanoma): 298 nM and 32.6 nM | GI50 (SK-MEL-5 melanoma): 113 nM | GI50 (SK-OV-3 ovarian): 38.2 nM | TGI (SK-OV-3 ovarian): 229 nM and 29.7 nM | GI50 (SN12C renal): 143 nM | TGI (SN12C renal): 47500 nM | GI50 (SNB-19 CNS): 52 nM | TGI (SNB-19 CNS): 212 nM and 90.4 nM | GI50 (SR leukemia): 3.11 nM | GI50 (SW-620 colon): 19.8 nM | TGI (SW-620 colon): 6950 nM | GI50 (T-47D breast): 168 nM | TGI (T-47D breast): 488 nM | GI50 (TK-10 renal): 17.4 nM | TGI (TK-10 renal): 72.9 nM | GI50 (U251 CNS): 12.2 nM | TGI (U251 CNS): 28.9 nM | TGI (UACC-257 melanoma): 25.7 nM | GI50 (UACC-62 melanoma): 51.5 nM | GI50 (UO-31 renal): 29.4 nM | TGI (UO-31 renal): 94.3 nM and 26.5 nM

CC(=O)C(=Cc1ccc(C=C(C(C)=O)C(C)=O)cc1)C(C)=O
TGI (786-0 renal): 5840 nM | TGI (A498 renal): 9030 nM | TGI (A549 NSCLC): 25200 nM | TGI (ACHN renal): 3590 nM | TGI (BT-549 breast): 4600 nM | TGI (CAKI-1 renal): 4750 nM | TGI (COLO 205 colon): 3330 nM | TGI (DU-145 prostate): 11900 nM | TGI (EKVX NSCLC): 8760 nM | TGI (HCC-2998 colon): 7660 nM | TGI (HCT-116 colon): 1810 nM | TGI (HCT-15 colon): 3440 nM | TGI (HL-60(TB) leukemia): 4520 nM | TGI (HOP-62 NSCLC): 6380 nM | TGI (HOP-92 NSCLC): 5870 nM | TGI (HS 578T breast): 22600 nM | TGI (HT29 colon): 3050 nM | TGI (IGROV1 ovarian): 4180 nM | TGI (K-562 leukemia): 6120 nM | TGI (KM12 colon): 6180 nM | TGI (LOX IMVI melanoma): 1910 nM | TGI (M14 melanoma): 3590 nM | TGI (MALME-3M melanoma): 4840 nM | TGI (MCF7 breast): 2360 nM | TGI (MDA-MB-231 breast): 4400 nM | TGI (MDA-MB-435): 5660 nM | TGI (MDA-N): 5940 nM | TGI (MOLT-4 leukemia): 3600 nM | TGI (NCI-H226 lung): 7800 nM | TGI (NCI-H23 lung): 4590 nM | TGI (NCI-H460 lung): 7380 nM | TGI (NCI-H522 lung): 1930 nM | TGI (NCI/ADR-RES ovarian): 11200 nM | TGI (OVCAR-3 ovarian): 5000 nM | TGI (OVCAR-4 ovarian): 6760 nM | TGI (OVCAR-5 ovarian): 5880 nM | TGI (OVCAR-8 ovarian): 14600 nM | TGI (PC-3 prostate): 5170 nM | TGI (RPMI-8226 leukemia): 1710 nM | TGI (RXF 393 renal): 3510 nM | TGI (SF-268 CNS): 3970 nM | TGI (SF-295 CNS): 7970 nM | TGI (SF-539 CNS): 4030 nM | TGI (SK-MEL-2 melanoma): 5540 nM | TGI (SK-MEL-28 melanoma): 4480 nM | TGI (SK-MEL-5 melanoma): 3360 nM | TGI (SK-OV-3 ovarian): 17000 nM | TGI (SN12C renal): 3070 nM | TGI (SNB-19 CNS): 5460 nM | TGI (SW-620 colon): 1830 nM | TGI (T-47D breast): 8490 nM | TGI (TK-10 renal): 5310 nM | TGI (U251 CNS): 4240 nM | TGI (UACC-257 melanoma): 4480 nM | TGI (UACC-62 melanoma): 4020 nM | TGI (UO-31 renal): 3100 nM
